{
  "source": "paper PMC7274485",
  "about": "“A symbiotic bacterium of shipworms produces a compound with broad spectrum anti-apicomplexan activity” (PLoS Pathogens, 2020)",
  "key": {"[1]": {"tested_on": "Human Foreskin fibroblasts", "assay": "Cytotoxicity for host cells, cellular ATP (CellTiter-Glo): HFF", "protocol": "Toxicity was evaluated by measuring cellular ATP concentrations.\nHCT8, HFF and BT cells were seeded in 96-well plates to achieve 20–30% confluence after 24 hours of growth."}, "T. gondii": {"tested_on": "T. gondii", "assay": "Intracellular T. gondii growth inhibition, luciferase expression in HFF cells", "format": "cell-based", "conditions": "Toxoplasma gondii; luciferase expressing RH or ME49 strain in HFF cells; trtE added 24 hours post-infection, read 24 hours later; purification method 1 or 2; read-out: EC50 against intracellular T. gondii", "experimental": "To obtain sufficient trtE for in vitro and in vivo experiments, bacterial growth conditions were optimized, and a modified purification method was developed and validated by ESI-HRMS, LC/MS/MS and NMR (purification method 2; see methods and S8–S9 Figs). To determine the effective concentration at which trtE inhibited the growth of 50% of T. gondii parasites (EC50), HFF cells were seeded into 96 well plates and infected with luciferase expressing T. gondii tachyzoites. 24 hours post-infection two-fold serial dilutions of trtE, purified by method 1 or method 2, or DMSO vehicle control were added to the infected cells. 24 hours later, the infected cells were lysed and parasite growth quantified by luciferase expression. The EC50 of trtE against intracellular T. gondii was determined to be 3 nM regardless of purification method.\nT. gondii parasite lines were maintained by passage in HFFs as previously described. […] Growth was monitored by luciferase expression using Bright-glo Luciferase assay system (Promega Corp., Madison, WI). […] Infected cells were then incubated for 72 hours before growth was quantified by luciferase expression. […]"}, "Cryptosporidium parvum": {"tested_on": "Cryptosporidium parvum", "assay": "Neonatal mouse model of Cryptosporidium parvum infection", "format": "in vivo, mice", "conditions": "for Number of parasites in the intestine (histology infection score): 2 mg/kg orally every 12 hours, four doses, 5 days post infection, purification method 1", "experimental": "Of all apicomplexans that infect both humans and domesticated animals, Cryptosporidium is a particular challenge for human and veterinary medicine as there is currently no effective treatment for this parasite. We chose to evaluate the in vivo efficacy of trtE using a neonatal mouse model of C. parvum infection. […] In a preliminary experiment, ten, 8 day old mice were infected with C. parvum and then treated with four doses of 2 mg/kg of trtE (purification method 1) given orally every 12 hours for 2 days. Control mice received DMSO vehicle control. Five days post infection, mice were euthanized and the intestines processed for histology. Infection was scored by visual evaluation of infection intensity throughout the intestine by an investigator blinded to treatment. […] Eight-day-old mice, infected with C. parvum, were treated orally twice daily with trtE at 0.4, 4 or 40 mg/kg beginning two days post-infection and continuing for 2 days. On day 5, mice were euthanized and intestines processed for quantitative PCR to quantify infection.\n8-day-old mice were infected with 5x10^4 oocysts by oral gavage. In the initial preliminary experiment using trtE purified by method 1, mice were treated 48 hrs post infection with 2 mg/kg trtE every 12 hours by oral gavage for a total of 4 treatments. Control mice received vehicle control (DMSO diluted in DMEM containing 10% fetal calf serum). Mice were sacrificed 5 days post infection and intestines prepared for histological evaluation. Slides were blinded and the intensity of infection scored in the terminal jejunum, ileum, caecum and colon as previously described. Infection intensity scores for each region were added together to give a total infection score for the animal.\nIn the second set of experiments, mice were infected and treated as before, with 0.4, 4 or 40 mg/kg of trtE purified using method 2. Control mice received vehicle control in parallel. Mice were sacrificed 5 days post-infection and infection quantified by qPCR as previously described. The experiment was conducted three times."}},
  "note": "pEC50: −log10 of the molar value. Entries after “also recorded” stand apart in the source; their conditions may differ.",
  "data": [
    {"smiles": "CC1CCC=CC=CCCC(O)CC(=O)CC2CCC(C)C3(O2)O[B-]24OC(C(=O)O1)C1(OC(CCC1C)CC(=O)CC(O)CCC=CC=CCCC(C)OC(=O)C3O2)O4", "note": "(stereo not drawn) [trtE, tartrolon E]", "values": [
      {"measurement": "TC50 (median toxic concentration) for HFF", "setting": "[1]; 20–30% confluency, 24 hours, cellular ATP", "value": 7900, "unit": "nM"},
      {"measurement": "Selectivity Index, T. gondii vs Human Foreskin fibroblasts", "setting": "[1]; TC50/EC50", "value": 2633},
      {"measurement": "pEC50", "setting": "T. gondii", "value": 8.52},
      {"measurement": "Number of parasites in the intestine (histology infection score)", "setting": "Cryptosporidium parvum", "value": "significantly reduced the number of parasites"},
      {"measurement": "Number of parasites in the intestine (histology infection score)", "setting": "Cryptosporidium parvum; listed as TrtE", "value": "significantly reduced the number of parasites in the intestine"},
      {"measurement": "Reduction of intestinal Cryptosporidium infection (qPCR)", "setting": "Cryptosporidium parvum; 4 mg/kg orally twice daily for 2 days from two days post-infection, day 5, purification method 2", "value": 85, "unit": "%"},
      {"measurement": "Intestinal Cryptosporidium infection (qPCR)", "setting": "Cryptosporidium parvum; 40 mg/kg orally twice daily for 2 days from two days post-infection, day 5, purification method 2", "value": "nearly eliminated"},
      {"measurement": "Overt signs of toxicity in neonatal mice (discussion)", "setting": "Cryptosporidium parvum; four doses of 40 mg/kg over two days", "value": "did not exhibit overt signs of toxicity"},
      {"measurement": "Overt signs of toxicity in trtE treated neonatal mice", "setting": "Cryptosporidium parvum; oral doses up to 40 mg/kg twice daily for 2 days", "value": "no overt toxicity was observed; also recorded: did not observe overt toxicity; also recorded: no overt signs of toxicity"}
    ]}
  ]
}
